Read-outs that look alike come from different tables or passages of the source.
Legend:
[1] = system: NCI-H358 cells (K-Ras G12C); assay: CellTiter-Glo cell viability, NCI-H358; format: cell-based, human; settings: Homo sapiens, NCI-H358, 120 h, read-out: H358 Cell Viability IC50
Summary of the method: (§1)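 Compounds dispensed directly onto seeded cells; on day 5 plates equilibrated ~30 min to room temperature and luminescence read. Signal normalized to DMSO average (%) and fitted by four-parameter logistic.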

[2] = system: Capan-1 cells (K-Ras G12V); assay: CellTiter-Glo cell viability, Capan-1; format: cell-based, human; settings: Homo sapiens, CAPAN-1, 120 h, read-out: Capan-1 Cell Viability IC50
Summary of the method: as §1

[3] = target: KRAS G12C (Homo sapiens (Human), UniProt P01116+P62937, G12C); assay: Ras-Raf disruption/FRET/MOA assay (BRAF RBD, Cyclophilin A); format: biochemical; settings: read-out: KRAS G12C FRET IC50
Chain of KRAS G12C (P01116-2 other isoform, or with tags, fused parts or gaps G12C): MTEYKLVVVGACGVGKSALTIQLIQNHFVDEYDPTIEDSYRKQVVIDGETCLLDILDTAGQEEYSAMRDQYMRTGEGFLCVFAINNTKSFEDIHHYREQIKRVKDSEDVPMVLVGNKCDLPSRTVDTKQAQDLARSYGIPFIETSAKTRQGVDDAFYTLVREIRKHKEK
Chain of KRAS G12C (P62937 whole entry): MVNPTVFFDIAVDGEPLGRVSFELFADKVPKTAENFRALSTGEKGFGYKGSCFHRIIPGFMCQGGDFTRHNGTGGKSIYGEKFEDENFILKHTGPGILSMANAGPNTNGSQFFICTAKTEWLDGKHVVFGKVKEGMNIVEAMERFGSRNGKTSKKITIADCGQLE
Summary of the method: (§2)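 First, 25 μM Cyclophilin A, 12.5 nM His6-Ras-GMPPNP and 50 nM GST-BRAF RBD are mixed with diluted compound at pH 7.3. Next, 3 h at 25° C. Then 10 nM anti-His Eu-W1024 plus 50 nM anti-GST allophycocyanin for 1.5 h before TR-FRET reading.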

[4] = target: KRAS G12D (Homo sapiens (Human), UniProt P01116+P62937, G12D); assay: as above; format: biochemical; settings: read-out: KRAS G12D FRET IC50
Chain of KRAS G12D (P01116 other isoform, or with tags, fused parts or gaps G12D): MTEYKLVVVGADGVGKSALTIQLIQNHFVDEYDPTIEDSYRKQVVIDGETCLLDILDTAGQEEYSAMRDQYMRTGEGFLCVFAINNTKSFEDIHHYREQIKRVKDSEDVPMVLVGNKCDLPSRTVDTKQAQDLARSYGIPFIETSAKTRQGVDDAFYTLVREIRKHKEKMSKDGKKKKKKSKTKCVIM
Chain of KRAS G12D (P62937 whole entry): as the sequence (P62937 whole entry) above
Summary of the method: as §2

[5] = target: KRAS G12S (Homo sapiens (Human), UniProt P01116+P62937, G12S); assay: as above; format: biochemical; settings: read-out: KRAS G12S FRET IC50
Chain of KRAS G12S (P01116 other isoform, or with tags, fused parts or gaps G12S): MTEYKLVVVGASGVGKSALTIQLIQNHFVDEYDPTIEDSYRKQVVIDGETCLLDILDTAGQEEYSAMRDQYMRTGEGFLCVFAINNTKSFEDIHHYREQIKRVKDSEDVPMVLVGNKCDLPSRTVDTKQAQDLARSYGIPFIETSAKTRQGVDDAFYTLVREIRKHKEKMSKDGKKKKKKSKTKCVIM
Chain of KRAS G12S (P62937 whole entry): as the sequence (P62937 whole entry) above
Summary of the method: as §2

[6] = target: KRAS G12V (Homo sapiens (Human), UniProt P01116+P62937, G12V); assay: as above; format: biochemical; settings: read-out: KRAS G12V FRET IC50
Chain of KRAS G12V (P01116 other isoform, or with tags, fused parts or gaps G12V): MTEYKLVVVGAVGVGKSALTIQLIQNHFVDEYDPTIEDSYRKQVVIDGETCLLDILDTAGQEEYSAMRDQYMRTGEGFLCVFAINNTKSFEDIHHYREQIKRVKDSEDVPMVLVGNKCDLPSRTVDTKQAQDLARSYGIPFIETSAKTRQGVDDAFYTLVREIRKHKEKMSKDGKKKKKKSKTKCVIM
Chain of KRAS G12V (P62937 whole entry): as the sequence (P62937 whole entry) above
Summary of the method: as §2

[7] = target: KRAS G13C (Homo sapiens (Human), UniProt P01116+P62937, G13C); assay: as above; format: biochemical; settings: read-out: KRAS G13C FRET IC50
Chain of KRAS G13C (P01116 other isoform, or with tags, fused parts or gaps G13C): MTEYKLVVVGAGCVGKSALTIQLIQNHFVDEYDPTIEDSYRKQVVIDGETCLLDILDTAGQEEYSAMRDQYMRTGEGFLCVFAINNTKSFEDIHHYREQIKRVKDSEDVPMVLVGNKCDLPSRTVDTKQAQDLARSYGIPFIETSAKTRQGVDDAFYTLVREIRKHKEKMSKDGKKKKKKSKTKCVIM
Chain of KRAS G13C (P62937 whole entry): as the sequence (P62937 whole entry) above
Summary of the method: as §2

[8] = target: KRAS G13D (Homo sapiens (Human), UniProt P01116+P62937, G13D); assay: as above; format: biochemical; settings: read-out: KRAS G13D FRET data IC50
Chain of KRAS G13D (P01116 other isoform, or with tags, fused parts or gaps G13D): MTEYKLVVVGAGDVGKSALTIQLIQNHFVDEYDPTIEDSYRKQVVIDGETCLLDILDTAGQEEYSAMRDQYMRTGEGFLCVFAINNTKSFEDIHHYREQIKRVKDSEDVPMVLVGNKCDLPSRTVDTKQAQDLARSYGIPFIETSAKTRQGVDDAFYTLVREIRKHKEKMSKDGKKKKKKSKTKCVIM
Chain of KRAS G13D (P62937 whole entry): as the sequence (P62937 whole entry) above
Summary of the method: as §2

[9] = target: KRAS WT (Homo sapiens (Human), UniProt P01116+P62937); assay: as above; format: biochemical; settings: read-out: KRAS WT FRET data IC50
Chain of KRAS WT (P01116 other isoform, or with tags, fused parts or gaps): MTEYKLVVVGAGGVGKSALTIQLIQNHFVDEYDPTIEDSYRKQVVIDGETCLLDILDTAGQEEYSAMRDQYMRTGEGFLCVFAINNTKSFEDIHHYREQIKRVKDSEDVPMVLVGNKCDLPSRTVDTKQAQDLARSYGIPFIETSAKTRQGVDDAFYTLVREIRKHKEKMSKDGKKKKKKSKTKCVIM
Chain of KRAS WT (P62937 whole entry): as the sequence (P62937 whole entry) above
Summary of the method: as §2

[10] = target: NRAS G12C (Homo sapiens (Human), UniProt P01111+P62937, G12C); assay: as above; format: biochemical; settings: read-out: NRAS G12C FRET data IC50
Chain of NRAS G12C (P01111 whole entry G12C): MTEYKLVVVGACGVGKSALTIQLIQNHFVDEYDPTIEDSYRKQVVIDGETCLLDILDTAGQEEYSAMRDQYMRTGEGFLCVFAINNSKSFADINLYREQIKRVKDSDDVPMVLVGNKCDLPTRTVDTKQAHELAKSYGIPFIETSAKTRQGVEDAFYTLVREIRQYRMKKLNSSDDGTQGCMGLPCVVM
Chain of NRAS G12C (P62937 whole entry): as the sequence (P62937 whole entry) above
Summary of the method: as §2

[11] = system: NCI-H358 (K-Ras G12C); assay: CellTiter-Glo cell viability assay, NCI-H358; format: cell-based, human; settings: Homo sapiens, NCI-H358, 120 h
Summary of the method: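 NCI-H358 (K-Ras G12C) cells treated with compound dispensed directly into plates. CellTiter-Glo luminescence read on day 5 after ~30 min equilibration to room temperature. Signal normalised to DMSO average ×100, then fitted with a four-parameter logistic model.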

[12] = target: K-Ras G12C(GMP-PNP) binding to BRAF RBD (Homo sapiens (Human), UniProt P01116+P62937, G12C); assay: Disruption of BRAF RBD interaction with K-Ras (FRET / MOA assay), K-Ras G12C; format: biochemical; settings: read-out: KRAS G12C FRET IC50
Chain of K-Ras G12C(GMP-PNP) binding to BRAF RBD (P01116 other isoform, or with tags, fused parts or gaps G12C): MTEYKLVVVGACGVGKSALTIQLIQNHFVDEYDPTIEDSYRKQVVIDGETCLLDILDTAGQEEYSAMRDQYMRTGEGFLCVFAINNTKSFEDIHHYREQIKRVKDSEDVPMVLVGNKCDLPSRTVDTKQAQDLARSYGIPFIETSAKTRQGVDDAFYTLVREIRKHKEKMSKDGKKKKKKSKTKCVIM
Chain of K-Ras G12C(GMP-PNP) binding to BRAF RBD (P62937 whole entry): as the sequence (P62937 whole entry) above
Summary of the method: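 TR-FRET readout: after 3 h compound incubation at 25 °C, anti-His Eu and anti-GST allophycocyanin (10 and 50 nM final) added for a further 1.5 h. Dilution series was 10-point, 3-fold, top 30 μM final. Ras–cyclophilin A ternary complex formation blocks the BRAF RBD interaction; IC50 derived from reduced FRET ratio relative to DMSO.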

[13] = 5-day treatment, read-out: H358 Cell Viability assay data (K-Ras G12C, IC50)

Structure (SMILES)	IC50 ([1]; K-Ras G12C, 5-day treatment) [nM]	IC50 ([2]; K-Ras G12V, 5-day treatment) [nM]	IC50 [3] [nM]	IC50 [4] [nM]	IC50 [5] [nM]	IC50 [6] [nM]	IC50 [7] [nM]	IC50 [8] [nM]	IC50 [9] [nM]	IC50 [10] [nM]	IC50 [11, 13] [µM]	IC50 [12] [nM]	IC50 [1] [nM]	IC50 [2] [nM]	IC50 ([11]; read-out: H358 Cell Viability assay data (K-Ras G12C, IC50, uM), 5-day treatment) [µM]
CCn1c(-c2cccnc2[C@H](C)OC)c2c3cc(ccc31)-c1csc(n1)C[C@H](NC(=O)[C@H](C(C)C)N(C)C(=O)N1CC(O)(CN(C)C)C1)C(=O)N1CCC[C@H](N1)C(=O)OCC(C)(C)C2 [Compound A597]	10 to 100	100 to 1000	100 to 1000	1000 to 10000	100 to 1000	100 to 1000	100 to 1000	100 to 1000	100 to 1000	100 to 1000	< 0.01	10 to 100			
CCn1c(-c2cccnc2[C@H](C)OC)c2c3cc(ccc31)-c1csc(n1)[C@@H](OC)[C@H](NC(=O)[C@H](C(C)C)N(C)C(=O)N(C)C)C(=O)N1CCC[C@H](N1)C(=O)OCC(C)(C)C2 [Compound A598, (2S)—N-((6^3S,3S,4S,Z)-1^1-ethyl-3-methoxy-1^2-(2-((S)-1-methoxyethyl)pyridin-3-yl)-10,10-dimethyl-5,7-dioxo-6^1,6^2,6^3,6^4,6^5,6^6-hexahydro-1^1H-8-oxa-2 (4,2)-thiazola-1 (5,3)-indola-6 (1,3)-pyridazinacycloundecaphane-4-yl)-3-methyl-2-(1,3,3-trimethylureido) butanamide]			10 to 100	1000 to 10000	100 to 1000	100 to 1000	100 to 1000	100 to 1000	100 to 1000	10 to 100		10 to 100	100 to 1000	100 to 1000	0.01 to 0.1
CCn1c(-c2cccnc2[C@H](C)OC)c2c3cc(ccc31)-c1csc(n1)C[C@H](NC(=O)[C@H](C(C)C)N(C)C(=O)N1CC3(CCN(C)C3)C1)C(=O)N1CCC[C@H](N1)C(=O)OCC(C)(C)C2 [Compound A602]	100 to 1000	100 to 1000	100 to 1000	1000 to 10000	100 to 1000	100 to 1000	100 to 1000	100 to 1000	100 to 1000	100 to 1000	< 0.01	10 to 100			

Source: patent US20250195521A1 (Revolution Medicines, Inc., priority 2020, published 2025)
